In patent publication US10028992B2, “Methods of treating muscular dystrophy” (BOARD OF REGENTS OF THE NEVADA SYSTEM OF HIGHER EDUCATION …, priority 2012, dated 2018):

Tested on: α7 integrin promoter
Test: muscle cell-based assay: α7βgal+/− myoblasts/myotubes, LacZ reporter, β-galactosidase cleavage of FDG
Parameters: species or system mouse
Conditions: Myotubes; for Results in a α7+/− β-galactosidase assay, Myotubes, 0.5 uM: compound at 0.5 uM; for Results in a α7+/− β-galactosidase assay, Myotubes, 1 uM: compound at 1 uM; for Results in a α7+/− β-galactosidase assay, Myotubes, 5 uM: compound at 5 uM; for Results in a α7+/− β-galactosidase assay, Myotubes, 10 uM: compound at 10 uM; for Results in a α7+/− β-galactosidase assay, Myotubes, 20 uM: compound at 20 uM; for Results in a α7+/− β-galactosidase assay, Myotubes, 40 uM: compound at 40 uM
Method in brief: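 Primary α7βgal+/− mouse myoblasts (LacZ knocked into α7 integrin exon 1, promoter retained), differentiated; promoter activity read as β-galactosidase conversion of non-fluorescent FDG to fluorescein. Hits followed by dose-response, western analysis and myostatin counterscreen.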

Structure (SMILES)	Results in a α7+/− β-galactosidase assay, Myotubes, 0.5 uM	Results in a α7+/− β-galactosidase assay, Myotubes, 1 uM	Results in a α7+/− β-galactosidase assay, Myotubes, 5 uM	Results in a α7+/− β-galactosidase assay, Myotubes, 10 uM	Results in a α7+/− β-galactosidase assay, Myotubes, 20 uM	Results in a α7+/− β-galactosidase assay, Myotubes, 40 uM
Cc1nnc(-c2ccc(N3CCOCC3)c([N+](=O)[O-])c2)o1 [drawing 338]	0.0728	0.1596	−0.09085	−0.1238	0.04847	−0.1846
Cc1cc(C)cc(OCC(=O)N/N=C/c2ccccn2)c1 [drawing 339]	0.02382	0.1393	0.05474	−0.09985	0.0109	0.02169
O=C1Nc2ccccc2/C1=C/c1c[nH]c(-c2ccccc2)n1 [drawing 340]	0.05652	0.1643	0.09489	−0.07868	−0.03697	−0.06801
O=C(c1ccccc1)N1CCN(S(=O)(=O)c2cccs2)CC1 [drawing 341]	0.0882	0.04972	0.07204	−0.06595	−0.01414	−0.06305
COc1ccccc1C(=O)Nc1ccnn1C1CCN(C(=O)c2ccoc2)CC1 [drawing 343]	0.01341	−0.07814	0.06946	0.05194	−0.08844	−0.04958
CCOC(=O)c1nnn(-c2nonc2OC)c1-c1ccccc1 [drawing 344]	0.0549	0.07612	0.1364	0.03578	0.0782	−0.03173
CC(C)(C)Nc1nc(-c2ccc3c(c2)CCN3C(=O)C2CC2)cs1 [drawing 345]	0.1684	0.1611	0.06864	0.06011	−0.1349	−0.5189
CCN(C(=O)c1ccc(S(=O)(=O)N(C)C)cc1)C(C)C(=O)Nc1ccc(C)cc1 (stereo not drawn) [drawing 348]	−0.152	−0.2399	−0.0943	0.05776	−0.2237	0.02912
COc1cc(NC(=O)OCc2ccccc2)c2ncccc2c1 [drawing 349]	0.01764	0.03267	−0.1098	−0.05054	−0.1951	−0.2383
Cc1ccc2c(c1)/C(=C/c1ccccc1C)C(=O)N2 [drawing 350]	−0.01581	−0.0839	−0.04071	0.0246	−0.4093	−0.6283
O=C(NCCc1ccccc1)C1CCC(=O)N1C1CCCC1 (stereo not drawn) [drawing 351]	0.05429	−0.1351	0.08688	0.1206	−0.1635	−0.1123
CCCN(C(=O)c1ccc(S(=O)(=O)N2CCCC2)cc1)C1CCS(=O)(=O)C1 (stereo not drawn) [drawing 352]	−0.1044	−0.1728	−0.01555	0.1537	−0.08104	−0.06466
C=CCOc1ccc(C(=O)/C=C2\C(=O)Nc3ccccc32)cc1 [drawing 353]	−0.02111	−0.0826	−0.09703	0.05145	−0.2835	−0.2827
CCN(CC(=O)NCc1cccs1)C(=O)COc1ccc(C(N)=O)cc1 [drawing 354]	0.06872	−0.07237	0.09763	0.2952	−0.2218	−0.02391
CC(C)Oc1cccc(C(=O)Nc2ccc(CN3CCOCC3)cc2)c1 [drawing 355]	−0.02164	−0.1398	0.1741	0.1947	−0.2357	−0.1159
Cc1ccc(/C=C2\C(=O)Nc3ccccc32)o1 [drawing 356]	0.09656	−0.02249	−0.1043	−0.06876	−0.2369	−0.336
O=c1[nH]c(CN2CCCCC2)cc2c1C1(CCCCC1)Cc1ccccc1-2 [drawing 357]	0.1087	0.1264	−0.08739	−0.0441	−0.09507	−0.1888
COc1ccccc1NS(=O)(=O)c1cc(NC(=O)c2ccc(Cl)nc2)ccc1N1CCCC1 [drawing 358]	0.1418	0.2243	0.0609	0.2352	−0.07572	−0.1492
N#C/C(=C1/C(=O)Nc2ccc(Br)cc21)c1ccccn1 [drawing 359]	0.2651	0.03214	−0.1525	−0.1528	−0.2624	−0.2931
N#CC1=C2SCN(c3ccccc3)CN2C(=O)CC1c1cccs1 (stereo not drawn) [drawing 360]	0.09082	0.1158	−0.0988	−0.03259	−0.2578	−0.3783
COc1ccc(C(=O)/C=C2\C(=O)Nc3ccccc32)cc1 [drawing 361]	0.1208	0.06821	−0.04505	−0.256	−0.3122	−0.5124
